This is an account of results in PubChem BioAssay AID2305 (GlaxoSmithKline (GSK), 2010).

Structures are written as SMILES. pIC50: −log10 of the molar value.

As usually defined, the pIC50 is −log10 of the IC50, conventionally taken in molar units.

The subject of the test is P. falciparum 3D7 growth, pLDH absorbance. Put plainly: P. falciparum 3D7 growth inhibition, dose response, strain 3D7 (AID 2305).

Turning to `Cc1cc2[nH]c(-c3ccc(C(=O)NCCCN4CCN(c5cccc(Cl)c5)CC4)cc3)nc2cc1Cl`, the pIC50 is 6.11.
Then `CC(C)NCc1ccc(-c2cccc(NC(=O)c3cccc(Cl)c3)c2)cc1`, with 6.14; and `Fc1ccc2nc(-c3cccc(-c4ccc(CNCCc5ccncc5)cc4)c3)[nH]c2c1`, with 6.96; and `O=C(Nc1ccc2c(c1)CCNCC2)c1ccc(-c2ccc(Cl)cc2)cc1`, with 6.09.
Then `COc1cccc(Cc2c(C)nc3nc(N)nc(N)c3c2C)c1`, with 6.06; and `Clc1ccc2c(NN=Cc3ccco3)ccnc2c1`, with 5.96.
As for `CCOc1cc(C)ccc1NC1CCN(CCCCNC(=O)c2ccc(NC(=O)c3ccc(Cl)cc3)cc2)CC1`, the pIC50 was 6.15.
Then `Cc1ccc(S(=O)(=O)N2CCN(C(=O)c3cc(-c4ccccc4)n[nH]3)CC2)cc1`, with 6.22; and `COc1ccc(NC(=O)[C@H](Cc2ccccc2)Nc2cc(C)nc(NCCN3CCCC3)n2)cc1`, with 5.86.
Next, `CC1CN(Cc2ccc(-c3ccc(-c4nc5ccc(F)cc5[nH]4)s3)cc2)CC(C)O1` (stereo unspecified): 6.06; `COc1nc2c(N3CCN(CCNCc4ccc5c(n4)NC(=O)CO5)CC3)ccnc2cc1F`: 6.12; `OC(CNCCc1ccccc1)Cn1c2ccc(Cl)cc2c2cc(Cl)ccc21` (stereo unspecified): 6.14.
Then `CC12CCC(=O)N1C(C(=O)Nc1cccc(C(=O)Nc3cccc(C(F)(F)F)c3)c1)CS2` (stereo unspecified), with 6.44; and `O=C(Nc1cccc(CN2CCN(Cc3ccc(O)cc3)CC2)c1)c1cc2ccccc2s1`, with 6.17; and `C=CCc1cc(SC)ccc1Oc1ccc(N)cc1`, with 6.13.
Compound `O=C(/C=C/c1ccc(Cl)c(Cl)c1)NCCCCCN1CCC(NC(=O)Nc2cc(F)cc(F)c2)CC1` had a pIC50 of 6.10.
`OCC1CCN(Cc2cccc(-c3ccc(-c4nc5ccc(F)cc5[nH]4)cc3)c2)CC1` had a pIC50 of 6.14.
Take `c1ccc(CN2CCC(NCc3ccc(-c4ccc(CNCc5cccnc5)cn4)cc3)CC2)cc1`: the pIC50 is 6.06.
Then `CC1CCCCC1N(C)C1CCN(CCCNC(=O)C=Cc2cccc(C(F)(F)F)c2)CC1` (stereo unspecified), with 6.11; and `CC(=O)Nc1nc(C(=O)Nc2cccc(-c3ccc(-c4nc5c(C)cccc5[nH]4)s3)c2)cs1`, with 6.66.
`c1ccc(CCNCc2cccc(-c3ccc(CNc4ccc5ncccc5c4)cc3)c2)cc1` showed a pIC50 of 6.09.
Take `Cc1ccc(S(=O)Cc2ccc(Cl)cc2)cc1` (stereo unspecified): the pIC50 was 6.70.
Then `CC(C)(C)OC(=O)n1cc(C2CCN(CCCC34CCCc5cccc(c53)NC4=O)CC2)c2ccncc21` (stereo unspecified), with 6.06.
Then `CCCCCN1CCCN(Cc2cccc(NC(=O)c3ccc(-c4ccccc4)cc3)c2)CC1`, with 6.15; and `COc1coc(C(=O)NC2CCN(CC3(c4ccc(Cl)cc4)CCC3)CC2)c1OC`, with 6.80; and `CCn1ccc2c(N3CCCC3=O)cc(C(=O)N[C@@H](Cc3ccccc3)[C@H](O)CNC3CCCCC3)cc21`, with 6.92.
Next, `O=C(NCCCCN1CCC(c2ccc(-c3ccco3)cc2)CC1)c1ccc(NC(=O)c2ccc(Cl)cc2)cc1`: 6.27; `Cc1cc2c3c(N)nc(N)nc3ccc2n1C`: 7.05.
Take `CC1CN(Cc2cccc(F)c2)CCN1c1ccc(NC(=O)c2cccs2)cc1` (stereo unspecified): the pIC50 was 6.35.
Next, `CC(C)c1cn2c3c(cc(C(=O)N[C@@H](Cc4ccccc4)[C@H](O)CNC4CCOCC4)cc13)N(C)S(=O)(=O)CC2`: 7.30; `O=S(=O)(c1cc(Cl)sc1Cl)N(CCC(O)(C(F)(F)F)C(F)(F)F)Cc1cccc(O)c1`: 6.13; `CCCCCCCN1CC[C@@H](CCCc2ccnc3ccc(OCCN4CCOCC4)cc23)[C@@H](CC)C1`: 6.04.
Compound `COc1cccc2c(NN=Cc3ccc(Cl)cc3)ccnc12` showed a pIC50 of 6.09.
Next, `Cc1ccc2nc(C)cc(NN=Cc3cccc(Cl)c3)c2c1`: 6.13.
Next, `COc1ccc(C(=O)C2CCN(CCCCNC(=O)c3ccc(NC(=O)c4ccc(Cl)cc4)cc3)CC2)c(OC)c1`: 6.11; `CC(C)NCc1ccc(-c2ccc(-c3nc4ccc(F)cc4[nH]3)cc2)cc1`: 6.68.
Next, `COc1cc2nc(N3CCC(CNC(=O)c4ccc(NC(=O)c5ccc(Cl)cc5)cc4)CC3)nc(N)c2cc1OC`: 6.59.
As to `CCN1[C@@H](c2ccc(Cl)cc2)[C@@H](CNCc2ccccc2O)C[C@@]1(C)CO`, the pIC50 was 6.51.
Then `O=C(Nc1ccc(Br)cc1)N(CCN1CCOCC1)CC(O)COc1ccc(Cl)c(F)c1` (stereo unspecified), with 5.98.
Take `COc1ccc(-c2csc(C(=O)NC3CCC(N4CCC(c5ccccc5C)CC4)CC3)c2)cc1` (stereo unspecified): the pIC50 was 6.42.
Next, `CC1CCCCC1N(C)C1CCN(CCCNC(=O)C=Cc2ccccc2Cl)CC1` (stereo unspecified): 6.17.
Then `CN(CCC(O)c1ccc(Cl)c(Cl)c1)C[C@H]1C[C@@H]1C(=O)c1ccccc1` (stereo partly specified), with 6.10; and `COc1ccc(CNC(=O)NC2CCN(c3ccnc(Nc4cc(OC)c(OC)c(OC)c4)n3)C2)cc1` (stereo unspecified), with 6.02; and `Cn1cncc1CCCN(Cc1ccc(-c2ccc(C(F)(F)F)cc2)cc1)C(=O)Cn1c(CCc2cccc(F)c2F)cc(=O)c2cccnc21`, with 5.90.
As for `Cc1cn(CC(=O)Nc2cccc(-c3cccc(-c4nc5c(C)cccc5[nH]4)c3)c2)c(=O)[nH]c1=O`, the pIC50 was 6.24.
Turning to `CCN(CC)C(=NCCCCCCN=C(NC(N)=NCc1ccc(Cl)cc1Cl)N(CC)CC)NC(N)=NCc1ccc(Cl)cc1Cl`, the pIC50 was 6.66.
Consider `CC(C)NCc1ccc(-c2ccc(CN3CCCC(c4ccccc4)C3)cc2)c(C(=O)NC2Cc3ccccc3C2)c1` (stereo unspecified), for which the pIC50 was 6.00.
For `Cc1[nH]c(C)c(-c2ccc(CCc3ccc(F)cc3F)cc2)c(=O)c1Cl`, the pIC50 is 7.70.
In turn, `O=C(CSc1nc2ccccc2c(=O)n1CC1CCCO1)Nc1cc(C(F)(F)F)ccc1Cl` (stereo unspecified) had a negative-log IC50 (pIC50) of 6.64.
Then `Cn1nc(-c2ccc(S(=O)(=O)N3CCC(CCN4CCC(c5c[nH]c6ccccc56)CC4)CC3)s2)cc1C(F)(F)F`, with 6.09; and `FC(F)(F)c1ccc2nc(-c3ccc(-c4ccc(CN5CCN(c6ccncc6)CC5)cc4)cc3)[nH]c2c1`, with 7.22; and `O=C(Nc1ccc(N2CCN(Cc3c[nH]c4cc(F)ccc34)CC2)cc1)c1ccccc1-c1ccc(C(F)(F)F)cc1`, with 6.00.
`CCOc1ccc(-c2noc(-c3c[nH]c4ccccc4c3=O)n2)cc1` had a pIC50 of 6.68.
On to `O=C1CCCN1CCCNCc1cccc(-c2cccc(-c3nc4ccc(F)cc4[nH]3)c2)c1`, for which the negative-log IC50 (pIC50) is 6.22.
In turn, `CCCc1c(C(=O)NC2CCC(CN3CCC(c4c[nH]c5ccccc45)CC3)CC2)cnn1-c1ccccc1` (stereo unspecified) gave a pIC50 of 5.75.
The compound `Cc1cc(C)c(CC(C)NCC(O)c2cccc(C(F)(F)F)c2)c(C)c1` (stereo unspecified) gave a pIC50 of 6.24.
As for `COc1ccc2nccc(N3CCC(NCCNCc4ccc5c(n4)NC(=O)CS5)C3)c2n1` (stereo unspecified), the pIC50 was 6.16.
Then `C[C@H](N[C@H]1CCCc2c1[nH]c1ccc(Br)cc21)c1ccccc1`, with 6.66.
Next, `N#Cc1ccc(C(=O)Nc2cccc(-c3ccc(CN4CCCC4)cc3)c2)cc1`: 6.14; `CN1CCN(Cc2ccc(-c3cc4c(Nc5ccc(OCc6cccc(F)c6)c(Cl)c5)ncnc4s3)[nH]2)CC1`: 6.11; `Cc1ccc(Nc2nc(C)cc(N3CCN(c4ccccc4)CC3)n2)cc1`: 5.82.
Next, `CN(C)CCCOc1cc(NC(=O)Nc2ccc(-c3ccncc3)c3ccccc23)ccc1I`: 6.15.
`CCCCC(N)COc1cccc2c(-c3ccncc3)c(-c3cccc(NC(=O)Nc4ccccc4)c3)nn12` (stereo unspecified): the pIC50 was 6.06.
Then `Oc1ccc(CCCc2cc(Oc3c(I)cc(CCc4ncc[nH]4)cc3I)ccc2O)cc1`, with 6.06.
Then `CCC(c1ccccc1)c1nn2c(-c3cccs3)nnc2s1` (stereo unspecified), with 6.77; and `Cc1noc(C)c1-c1ccc2c(Nc3ccccc3C(C)(C)C)c(C(=O)NCc3ccccc3)cnc2c1`, with 6.12.
`Cc1cccc2c(N=NC(=S)N(C)C)c(O)[nH]c12` had a pIC50 of 6.12.
Compound `OC(CNCCCCCCNCC(O)c1ccc(Cl)c(Cl)c1)c1ccc(Cl)c(Cl)c1` (stereo unspecified) showed a negative logarithm of the IC50 (pIC50) of 6.04.
Next, `Cn1cccc1C(=O)C(=O)Nc1ccc(-c2ccc(-c3nc4ccc(F)cc4[nH]3)cc2)cc1`: 6.08; `O=C(Nc1ccc(C(F)(F)F)cc1)NC1CCN(c2ccnc3cc(Cl)ccc23)C1` (stereo unspecified): 6.85.
In turn, `COc1cc2nc(NCCCOC(C)C)n3nc(-c4ccccc4)nc3c2cc1OC` gave a negative logarithm of the IC50 (pIC50) of 6.70.
In turn, `CC(C)CNCc1ccc(-c2ccc(CN(CCCN3CCN(C)CC3)C(=O)CCC3CCCC3)cc2)cc1` gave a pIC50 of 5.97.
Consider `CS(=O)(=O)Nc1ccc2[nH]cc(C3CCN(CC4CCC(NC(=O)/C=C/c5ccc(Cl)c(Cl)c5)CC4)CC3)c2c1` (stereo unspecified), for which the pIC50 was 6.07.
Next, `Cn1nc(-c2ccccc2F)c2cc(C(=O)NC3CCN(Cc4ccccc4)CC3)sc21`: 6.10; `Cc1ccc(-c2ccc3c(c2)C=C(C(=O)NCC2CCN(CC4CCN(C(=O)/C=C/c5ccc(Cl)c(Cl)c5)CC4)CC2)CCC3)cc1`: 6.11.
Next, `Fc1ccc2nc(-c3cccc(-c4ccc(CNCC5CCCO5)cc4)c3)[nH]c2c1` (stereo unspecified): 6.27.
`COc1cc2nc(N(C)C3CCN(Cc4ccccc4)CC3)nc(N)c2cc1OC` showed a pIC50 of 6.48.
In the case of `COc1ccc2nc(C)cc(NN=Cc3cc(OC)c(OC)cc3OC)c2c1`, the pIC50 was 6.13.
Regarding `CCC(C(=O)Nc1ccccc1)n1nc(-c2ccc(C)c(S(=O)(=O)N3CCCCC3)c2)ccc1=O` (stereo unspecified), the negative logarithm of the IC50 (pIC50) was 5.96.
`COc1ccc(C(=O)[C@H]2C[C@@H]2CN2CC=C(c3c[nH]c4ccccc34)CC2)cc1` showed a pIC50 of 6.28.
`CC(C)(C)C/C=C\c1ccc(C(=O)NCC2CC2)cc1` had a pIC50 of 6.07.
Next, `OC(CNc1ccnc(Nc2cccc(Cl)c2)n1)c1cccc(C(F)(F)F)c1` (stereo unspecified): 6.29; `COc1ccc(C2=CCN(c3ccc(Cl)c(Cl)c3)C2=O)cc1OCCN1CCCCC1`: 6.11; `COc1cc2nc(N3CCC(CNC(=O)c4ccc(-c5ccc(-c6noc(C)n6)cc5)cc4)CC3)nc(N)c2cc1OC`: 6.85.
Then `CN(C)CCN(C)Cc1nc(-c2ccc3c(Nc4ccc(Oc5ccccc5)cc4)ccnc3c2)cs1`, with 6.68.
Then `Cc1ccc(C)c2sc(N(CCCn3ccnc3)C(=O)C=Cc3cccs3)nc12`, with 5.97.
